This is an account of results in ChEMBL document CHEMBL6153079, “Discovery of noncovalent diaminopyrimidine-based Inhibitors for glioblastoma via a dual FAK/DNA targeting strategy” (Eur J Med Chem, 2025).

The target of experiment [1] is Focal adhesion kinase 1 (Homo sapiens, UniProt Q05397). Put plainly: Inhibition of FAK (unknown origin) at 50 nM relative to control.
Experiment [2] deals with U-87 MG. Put plainly: Induction of cell cycle arrest in human U-87 MG cells assessed as accumulation of cells at […] at 2 uM by propidium Iodide staining based flow cytometry analysis (reference value: 1.67%). The experiment is classed as functional, U-87MG ATCC. (Flow cytometry measures light scatter and fluorescence of single cells or particles in a stream.)

Chain of Focal adhesion kinase 1 (Q05397 2-1052 limits assumed): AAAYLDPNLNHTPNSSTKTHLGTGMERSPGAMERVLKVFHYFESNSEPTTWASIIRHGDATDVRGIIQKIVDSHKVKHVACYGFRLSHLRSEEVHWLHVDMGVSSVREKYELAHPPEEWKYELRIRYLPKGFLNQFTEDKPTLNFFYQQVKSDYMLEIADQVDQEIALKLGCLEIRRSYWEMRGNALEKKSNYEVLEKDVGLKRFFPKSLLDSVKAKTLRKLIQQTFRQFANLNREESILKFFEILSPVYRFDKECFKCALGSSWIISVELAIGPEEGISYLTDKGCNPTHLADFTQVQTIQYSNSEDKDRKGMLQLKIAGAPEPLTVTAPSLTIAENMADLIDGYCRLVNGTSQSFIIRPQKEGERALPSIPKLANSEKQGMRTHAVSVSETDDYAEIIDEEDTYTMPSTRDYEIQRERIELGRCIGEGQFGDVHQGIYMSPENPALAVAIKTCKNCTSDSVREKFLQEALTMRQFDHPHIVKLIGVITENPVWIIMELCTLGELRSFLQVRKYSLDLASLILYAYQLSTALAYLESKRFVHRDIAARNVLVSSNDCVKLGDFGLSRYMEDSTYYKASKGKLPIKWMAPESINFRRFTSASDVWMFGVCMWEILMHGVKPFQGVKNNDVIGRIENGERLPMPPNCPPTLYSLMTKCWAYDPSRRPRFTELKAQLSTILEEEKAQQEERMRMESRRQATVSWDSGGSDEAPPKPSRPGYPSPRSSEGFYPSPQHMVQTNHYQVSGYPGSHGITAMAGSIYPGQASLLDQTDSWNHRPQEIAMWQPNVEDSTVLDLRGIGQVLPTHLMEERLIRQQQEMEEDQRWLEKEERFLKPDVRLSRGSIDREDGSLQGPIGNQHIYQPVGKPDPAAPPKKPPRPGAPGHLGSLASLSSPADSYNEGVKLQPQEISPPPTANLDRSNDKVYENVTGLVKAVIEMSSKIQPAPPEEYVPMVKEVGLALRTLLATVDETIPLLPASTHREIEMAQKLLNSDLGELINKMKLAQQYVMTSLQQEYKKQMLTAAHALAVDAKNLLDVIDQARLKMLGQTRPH

As usually defined, the inhibition is the drop in the measured response relative to a control, in per cent. Read a low inhibition as little suppression. The molecule `CNC(=O)c1ccccc1Nc1nc(Nc2ccc(N3CCN(CCOC(=O)CCCc4ccc(N(CCCl)CCCl)cc4)CC3)cc2)ncc1C(F)(F)F` returned an inhibition in experiment [1] of 100%. Also, the Activity in experiment [2] was 1.88%.
